Results taken from PMC7496768, “Understanding Substrate Selectivity of Phoslactomycin Polyketide Synthase by Using Reconstituted in Vitro Systems” (Chembiochem, 2020).

Biological target: T1, Npt (Streptomyces platensis, UniProt A0AAE6NLM9)
T1 construct: recombinant, expressed in E. coli BL21 (DE3), purified
T1 sequence (A0AAE6NLM9 1-219): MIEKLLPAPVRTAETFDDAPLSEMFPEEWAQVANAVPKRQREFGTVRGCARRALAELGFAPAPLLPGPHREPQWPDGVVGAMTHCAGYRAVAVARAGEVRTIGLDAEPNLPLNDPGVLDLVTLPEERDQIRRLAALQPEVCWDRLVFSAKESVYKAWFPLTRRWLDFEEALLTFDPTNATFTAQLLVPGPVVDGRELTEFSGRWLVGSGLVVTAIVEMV
Test: phosphopantetheinylation of apo-ACPs
Type: biochemical
Details: apo-Pn ACPs as acceptor

CC(C)(COP(=O)(O)OP(=O)(O)OC[C@H]1O[C@@H](n2cnc3c(N)ncnc32)[C@H](O)[C@@H]1OP(=O)(O)O)[C@@H](O)C(=O)NCCC(=O)NCCS [CoA-SH]
phosphopantetheinylation of apo-ACPs: Npt serves as a bona fide Ppant transferase that is able to activate apo‐Pn_ACPs
